From ChEMBL document CHEMBL1125820, “Structure-activity relationship of mutagenic aromatic and heteroaromatic nitro compounds. Correlation with molecular orbital energies and hydrophobicity” (J Med Chem, 1991)

What was measured:
[1] = Partition coefficient (logP); conditions: octanol/water
[2] = test system: Salmonella typhimurium; assay: Mutagenic activity in an Ames test on Salmonella Typhimurium TA98; Activity is log of revertants/nmol; assay type: functional, Salmonella enterica subsp. enterica serovar Typhimurium; parameters: scale not given here

Row | SMILES | logP [1] | Activity [2]
1 | Nc1ccc(-c2ccc([N+](=O)[O-])cc2)cc1 | 2.68 | 
2 | CC(=O)Oc1cc([N+](=O)[O-])c2ccc3cccc4ccc1c2c43 | 4.42 | 4.22
3 | O=[N+]([O-])c1cc([N+](=O)[O-])c2ccccc2c1 | 2.83 | -0.05
4 | O=Cc1ccc([N+](=O)[O-])cc1 | 1.56 | 
5 | Nc1cccc(-c2ccc([N+](=O)[O-])cc2)c1 | 2.68 | 0.25
6 | O=[N+]([O-])c1ccc2[nH]c3ccccc3c2c1 | 3.51 | -0.7
7 | O=[N+]([O-])c1ccc2c(c1)Cc1cc(F)ccc1-2 | 4.11 | 2.68
8 | O=[N+]([O-])c1ccc2ccc3cc4ccccc4c4ccc1c2c34 | 5.87 | 2.63
9 | O=[N+]([O-])c1cc2cccc3ccc4cccc1c4c32 | 4.69 | 
10 | O=[N+]([O-])C1=CC=CC2Nc3ccccc3NC12 (centres undefined) | 2.52 | 0.87
11 | O=[N+]([O-])c1cccc2cc[nH]c12 | 2.13 | 
12 | O=[N+]([O-])c1cccc(F)c1 | 1.9 | 
13 | CN1Cc2cc([N+](=O)[O-])ccc2N1 | 1.77 | -1.1
14 | O=[N+]([O-])c1ccc2c3ccccc3c3ccccc3c2c1 | 5.41 | 4.09
15 | O=[N+]([O-])c1ccc2c(c1)CCN2 | 2.07 | 
16 | O=[N+]([O-])c1ccc2c3c(cccc13)-c1cc3ccccc3cc1-2 | 5.87 | 2.76
17 | Nc1ccc2ccc3ccc([N+](=O)[O-])c4ccc1c2c34 | 3.63 | 2.43
18 | O=[N+]([O-])c1ccc2c(c1)C=CC2 | 2.74 | 0.08
19 | O=[N+]([O-])c1ccc2nc3ccccc3nc2c1 | 2.52 | 
20 | Cn1ccc2cc([N+](=O)[O-])ccc21 | 2.5 | 
21 | O=[N+]([O-])c1cc2c3c(c1)CCc1cc([N+](=O)[O-])cc(c1-3)CC2 | 5.02 | 3.5
22 | O=[N+]([O-])c1ccc2c(c1)Oc1cc(Cl)c(Cl)cc1O2 | 6.24 | 1.73

Row | SMILES | logP [1] | Activity [2]
23 | O=[N+]([O-])c1ccc(Cl)cc1Cl | 3.09 | 
24 | O=[N+]([O-])c1ccc2cccc3c2c1C=C3 | 3.36 | 1.77
25 | O=[N+]([O-])c1ccc2ccc3cccc4c5c(c1c2c34)CCCC5 | 6.26 | 0.7
26 | Cc1ccccc1-c1ccc([N+](=O)[O-])c(C)c1 | 4.49 | -0.84
27 | O=[N+]([O-])c1c2cccc(O)c2cc2c1ccc1ccccc12 | 5.06 | 
28 | O=[N+]([O-])c1cc2c(cc1Cl)Oc1cc(Cl)c(Cl)cc1O2 | 6.68 | -0.53
29 | O=[N+]([O-])c1cc2c3c(ccc([N+](=O)[O-])c3c1)-c1ccccc1-2 | 4.44 | 3.78
30 | O=[N+]([O-])c1cccc(Cl)c1 | 2.41 | 
31 | O=[N+]([O-])c1ccc2c3ccccc3c3cccc4ccc1c2c43 | 5.87 | 
32 | COc1cc([N+](=O)[O-])c2ncccc2c1 | 1.87 | -1.21
33 | Cc1cc2ccccc2cc1[N+](=O)[O-] | 3.43 | 0
34 | O=[N+]([O-])c1ccc2c3c(c4c([N+](=O)[O-])ccc5ccc1c2c54)CCCC3 | 6.01 | 2.41
35 | O=[N+]([O-])c1cccc2c([N+](=O)[O-])cccc12 | 2.58 | 0.52
36 | O=[N+]([O-])c1c2c(cc3ccccc13)C=CC(O)C2O (centres undefined) | 1.38 | 
37 | Cc1cc(-c2ccccc2)ccc1[N+](=O)[O-] | 3.99 | -0.1
38 | O=[N+]([O-])c1ccc(Cl)c(Cl)c1 | 3.12 | 
39 | Cc1ccccc1-c1ccc([N+](=O)[O-])cc1 | 4.27 | -0.23
40 | Nc1c(Br)cc([N+](=O)[O-])cc1[N+](=O)[O-] | 2.78 | -1.32
41 | O=[N+]([O-])c1ccc2ccc3ccc(O)c4ccc1c2c34 | 4.19 | 1.49
42 | O=[N+]([O-])c1cccc2cccc([N+](=O)[O-])c12 | 2.52 | 0.9
43 | O=[N+]([O-])c1c2ccccc2cc2c3c(ccc12)C(O)C(O)C=C3 (centres undefined) | 2.55 | 
44 | O=[N+]([O-])c1ccc2c3ccccc3c3c([N+](=O)[O-])ccc4ccc1c2c43 | 5.61 | 1.99

Row | SMILES | logP [1] | Activity [2]
45 | O=[N+]([O-])c1cccc2c3ccccc3c3ccccc3c12 | 5.41 | 
46 | O=[N+]([O-])c1cccc2cccnc12 | 1.44 | 
47 | O=[N+]([O-])c1cc2c3c(c1)CCc1cccc(c1-3)CC2 | 5.28 | 1.58
48 | O=[N+]([O-])c1ccc2c(c1)Cc1cc([N+](=O)[O-])ccc1-2 | 3.35 | 3.22
49 | O=[N+]([O-])c1cccc2[nH]ccc12 | 2.13 | 
50 | O=[N+]([O-])c1c2c(c3ccc4cccc5ccc1c3c45)CCCC2 | 6.57 | 
51 | O=[N+]([O-])c1c2c(cc3ccccc13)C(O)C(O)C=C2 (centres undefined) | 3.4 | 
52 | O=[N+]([O-])c1cc2ccc3ccc4ccc5ccc6ccc1c1c6c5c4c3c21 | 6.79 | 0.45
53 | CC(=O)c1ccc([N+](=O)[O-])cc1 | 1.53 | 
54 | O=[N+]([O-])c1ccc2c3cccc4cccc(c5cccc1c52)c43 | 5.87 | 
55 | O=[N+]([O-])c1ccc(F)cc1F | 1.89 | -1.66
56 | O=[N+]([O-])c1ccc2ccc3cccc4cc(O)c1c2c34 | 4.34 | 1.89
57 | O=[N+]([O-])c1ccc2cccc3c2c1-c1ccccc1-3 | 4.69 | 
58 | CN1CCc2cc([N+](=O)[O-])ccc21 | 2.86 | 
59 | O=[N+]([O-])c1ccc(-c2ccccc2)cc1 | 3.77 | -0.3
60 | O=[N+]([O-])c1c2c(c3ccc4cccc5ccc1c3c45)CCCC2O (centres undefined) | 4.78 | 
61 | Cc1nc2cc([N+](=O)[O-])ccc2[nH]1 | 1.94 | -0.51
62 | O=[N+]([O-])c1ccc2ccccc2c1 | 3.24 | 
63 | O=[N+]([O-])c1ccc2ncccc2c1 | 1.84 | -1.08
64 | O=[N+]([O-])c1ccc2ccc3c4c(cc5ccc1c2c53)C(O)C(O)C=C4 (centres undefined) | 3.01 | 3.08
65 | O=[N+]([O-])c1ccc2ccc3c4ccccc4cc4ccc1c2c43 | 5.87 | 2.82
66 | O=[N+]([O-])c1cc2ccc3cc([N+](=O)[O-])cc4ccc(c1)c2c34 | 4.44 | 

Row | SMILES | logP [1] | Activity [2]
67 | Nc1ccc([N+](=O)[O-])cc1[N+](=O)[O-] | 1.84 | -1.74
68 | O=[N+]([O-])c1c2c(cc3c1ccc1ccccc13)C=CC(O)C2O (centres undefined) | 2.55 | 
69 | O=[N+]([O-])c1ccc2c(c1)Nc1cccc([N+](=O)[O-])c1N2 | 2.29 | 2.02
70 | O=[N+]([O-])c1cc([N+](=O)[O-])c2ccc3cccc4ccc1c2c43 | 4.44 | 5.04
71 | O=[N+]([O-])c1ccc2c(ccc3ccccc32)c1 | 4.23 | 2.11
72 | O=[N+]([O-])c1ccc(/C=C/c2ccccc2)cc1 | 4.18 | 
73 | O=[N+]([O-])c1cccc2c1-c1cccc3cccc-2c13 | 4.69 | 1.87
74 | Cn1ccc2cccc([N+](=O)[O-])c21 | 2.5 | 
75 | O=[N+]([O-])c1ccc2ccc3cccc4c5ccccc5c1c2c34 | 5.87 | 
76 | O=[N+]([O-])c1c(O)cc2cccc3c2c1-c1ccccc1-3 | 4.66 | 2.26
77 | O=[N+]([O-])c1ccc2c3c(cccc13)CC2 | 3.85 | 0.58
78 | O=C1c2cc([N+](=O)[O-])ccc2-c2ccc([N+](=O)[O-])cc21 | 2.84 | 
79 | O=[N+]([O-])c1ccccc1F | 1.69 | 
80 | O=[N+]([O-])c1ccc(Cl)cc1 | 2.39 | 
81 | O=[N+]([O-])c1ccc(-c2ccc([N+](=O)[O-])cc2)cc1 | 3.52 | 1.17
82 | O=[N+]([O-])c1cc2c3ccccc3ccc2c2ccccc12 | 5.41 | 1.75
83 | O=Cc1ccccc1[N+](=O)[O-] [2-NITROBENZALDEHYDE] |  | -1.92
84 | O=C1OCCN1/N=C/c1ccc([N+](=O)[O-])o1 [FURAZOLIDONE] |  | 2.24
85 | Cc1ncc([N+](=O)[O-])n1CCO [METRONIDAZOLE] | -0.02 | 
86 | O=C1CN(/N=C/c2ccc([N+](=O)[O-])o2)C(=O)N1 [NITROFURANTOIN] |  | 1.03
